Consider 3 compounds from patent US20220017468A1, “ISOQUINOLINE COMPOUNDS AND THEIR USE IN TREATING AhR IMBALANCE” (Dermavant Sciences GmbH, priority 2020, published 2022).

Data set [1] addresses T1, AhR (Homo sapiens, UniProt P35869).
T1 construct: LS-180 cells stably transfected with a CYP1A1 promoter-linked beta-lactamase gene reporter construct; endogenous in cells; host or cells: CYP1A1-bla LS-180 cells
T1 sequence (P35869 11-848): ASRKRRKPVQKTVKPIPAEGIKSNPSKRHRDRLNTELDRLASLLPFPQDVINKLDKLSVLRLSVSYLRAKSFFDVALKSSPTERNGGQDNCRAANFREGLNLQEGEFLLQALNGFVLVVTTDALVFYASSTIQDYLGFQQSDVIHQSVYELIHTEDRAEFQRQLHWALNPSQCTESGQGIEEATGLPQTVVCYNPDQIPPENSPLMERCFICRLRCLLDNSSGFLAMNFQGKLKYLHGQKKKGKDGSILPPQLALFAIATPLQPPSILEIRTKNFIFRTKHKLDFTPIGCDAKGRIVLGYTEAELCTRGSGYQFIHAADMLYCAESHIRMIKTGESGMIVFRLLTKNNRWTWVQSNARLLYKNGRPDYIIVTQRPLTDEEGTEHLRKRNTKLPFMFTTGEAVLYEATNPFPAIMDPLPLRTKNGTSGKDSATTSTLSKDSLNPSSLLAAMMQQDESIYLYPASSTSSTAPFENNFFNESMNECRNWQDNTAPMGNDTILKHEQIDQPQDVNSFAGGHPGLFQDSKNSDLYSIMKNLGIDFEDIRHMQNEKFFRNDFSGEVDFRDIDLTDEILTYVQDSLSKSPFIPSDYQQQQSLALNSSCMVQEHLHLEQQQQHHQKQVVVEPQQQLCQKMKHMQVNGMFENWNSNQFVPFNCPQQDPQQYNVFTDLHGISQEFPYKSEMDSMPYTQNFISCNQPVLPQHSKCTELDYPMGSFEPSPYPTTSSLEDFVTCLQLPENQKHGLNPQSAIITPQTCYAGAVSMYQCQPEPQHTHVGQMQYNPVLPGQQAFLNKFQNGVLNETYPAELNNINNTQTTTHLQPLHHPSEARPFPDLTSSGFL
Briefly: CYP1A1-bla LS-180 AhR agonist assay. The data set is classed as cell-based. The note with it: CYP1A1-bla LS-180 cells, ~20 hrs.
Method: LS-180 cells stably transfected with a CYP1A1 promoter-linked beta-lactamase gene reporter construct (termed CYP1A1-bla LS-180 cells) were used to characterize the ability of compounds to activate AhR. In brief, AhR activity was measured using the LiveBLAzer assay kit which utilizes a beta lactamase (bla) reporter gene downstream of CYP1A1 promoter, which metabolizes its substrate to give a fluorescent readout. For the agonist assay, CYP1A1-bla LS-180 cells were treated with increasing concentrations of compound over a 100,000-fold concentration range.
CYP1A1-bla LS-180 cells in exponential growth phase were washed twice with DPBS then seeded into 96-well microplates (50,000 cells/well) and allowed to adhere. […] The LiveBLAzer FRET B/G β-lactamase substrate was added in the final hour of incubation and resulting blue/green fluorescence was measured using a 96-well microplate reader.
AhR activity was measured as a function of beta-lactamase expression using a fluorescence resonance energy transfer-based readout. TCDD and FICZ were used as controls to validate the system.

Data set [2] has as its target T1, AhR. Conditions: value reported by Invitrogen; cited from earlier work.
Data set [3] concerns primary human cell culture platforms. Briefly: BioMAP Diversity Plus profiling. The data set is classed as cell-based. The note with it: profiles overlaid.
Data set [4] has as its system Nrf2. Put plainly: luciferase-based reporter assay for NQO1 gene expression. The data set is classed as cell-based. (Reporter assays use an easily measured gene product as a stand-in for the process of interest.)
The test system of data set [5] is IL-17A. Briefly: CD4+ T cell IL17 assay. The class given is cell-based, human. On the procedure: Therefore, compounds are evaluated for their ability to reduce IL-17 production from CD4+ T cells stimulated under Th17-skewing conditions. Cryopreserved human CD4^+ T cells (AllCells, LLC, Alameda, CA and Stemcell Technologies, Inc. Vancouver, Canada) were differentiated to the Th17 subtype by culturing for 5 days in CD3-coated tissue culture plates (2 μg/mL) in Iscove's modified Dulbecco's medium (IMDM) containing 10% HI-FBS, 55 μM 2-mercaptoethanol and soluble anti-CD28 (3 μg/mL) in the presence of a Th17 skewing cocktail, [IL-1β (10 ng/mL), IL-6 (30 ng/mL), TGFβ (0.5 ng/mL), IL-21 (10 ng/mL), IL-23 (10 ng/mL), anti-IFNγ (10 μg/mL) and anti-IL-4 (10 μg/mL)] in the presence or absence of serially diluted compounds. Secretion of IL-17 from polarized CD4+ T-cells was measured in the culture media using an MSD (Meso Scale Discovery) detection system following 5 day exposure toTh17 polarization reagents with and without compounds.

For data set [6], the target named is T2, CB2 (Homo sapiens, UniProt P34972).
T2 construct: expressed in transfected cells
T2 sequence (P34972 whole entry, species assumed): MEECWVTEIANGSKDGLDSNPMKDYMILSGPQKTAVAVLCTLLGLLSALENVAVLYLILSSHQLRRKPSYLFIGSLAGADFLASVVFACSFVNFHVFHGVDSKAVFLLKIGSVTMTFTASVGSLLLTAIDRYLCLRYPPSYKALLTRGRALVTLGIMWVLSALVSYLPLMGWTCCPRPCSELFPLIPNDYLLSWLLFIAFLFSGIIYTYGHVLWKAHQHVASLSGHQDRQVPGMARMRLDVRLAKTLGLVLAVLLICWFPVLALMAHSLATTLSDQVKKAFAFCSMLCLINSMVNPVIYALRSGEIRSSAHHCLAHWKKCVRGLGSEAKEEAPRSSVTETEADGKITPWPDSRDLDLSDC
Briefly: fluorescence-based agonist assay using genetically modified yeast. The class given is cell-based. The note with it: read-out: CB2 pEC50 (converted).

Data set [7] is described as follows: oxygen radical absorbance capacity (ORAC) test. The class given is biochemical. The note with it: Trolox Equivalent Values.

For orientation: pEC50 means −log10 of the EC50, conventionally taken in molar units. A lower pEC50 goes with a high EC50.

As for `Clc1cc2c(cc1Cl)Oc1cc(Cl)c(Cl)cc1O2` [TCDD], the negative logarithm of the EC50 (pEC50) in data set [1] was determined as 10.34. In data set [2], the “pEC50 reported by Invitrogen” value is on record as 9.70.

With “6-formylindolo(3,2-b)carbazole [FICZ, reference compound]”, the pEC50 in data set [1] is listed as 6.82. Besides, in data set [3], the “sIL-17 in BioMAP” value was “not seen”.

For the compound `CC(C)c1c(O)cc(/C=C/c2ccccc2)cc1O` [tapinarof], the “Nrf2 pEC50” value in data set [4] is given as “pEC50 = 7.6”. Also, in data set [5] (T-cell, MSD-based readout of secreted IL-17A from Th17-polarized primary human CD4+ peripheral blood T cells, read-out: IL-17A pIC50 (converted)), the IC50 was 3.16 nM. The IL-17A production result in data set [5] (Th17-skewing conditions, applied throughout culture) is recorded as “suppression of IL-17A”. Besides, the “sIL-17 in BioMAP” value in data set [3] is reported as “not seen”. Moreover, the EC50 in data set [6] was 158 nM. Besides, in data set [7], the Hydroxyl-radical is recorded as 1067 TEV, the Peroxyl radical-hydro amounted to 4663 TEV, the Peroxyl radical-lipo is recorded as 2164 TEV and the Peroxynitrite was 140 TEV. Further, in data set [7], the Singlet oxygen came out at 3581 TEV, the Superoxide anion is given as 11241 TEV and the “Total ORAC value” stood at 22855 TEV.
